Results: ChEMBL document CHEMBL4706764, “PROTAC-Mediated Degradation of Janus Kinase as a Therapeutic Strategy for Cancer and Rheumatoid Arthritis” (ACS Med Chem Lett, 2021)

Each molecule was assayed against Protein cereblon/Tyrosine-protein kinase JAK2 (Homo sapiens, UniProt O60674+Q96SW2) (assay: PROTAC activity at CRBN/JAK2 in human MHHCALL4 cells assessed as protein degradation by immunoblot analysis).
Assay type: cell-based

Sequence of Protein cereblon/Tyrosine-protein kinase JAK2 (O60674 whole entry): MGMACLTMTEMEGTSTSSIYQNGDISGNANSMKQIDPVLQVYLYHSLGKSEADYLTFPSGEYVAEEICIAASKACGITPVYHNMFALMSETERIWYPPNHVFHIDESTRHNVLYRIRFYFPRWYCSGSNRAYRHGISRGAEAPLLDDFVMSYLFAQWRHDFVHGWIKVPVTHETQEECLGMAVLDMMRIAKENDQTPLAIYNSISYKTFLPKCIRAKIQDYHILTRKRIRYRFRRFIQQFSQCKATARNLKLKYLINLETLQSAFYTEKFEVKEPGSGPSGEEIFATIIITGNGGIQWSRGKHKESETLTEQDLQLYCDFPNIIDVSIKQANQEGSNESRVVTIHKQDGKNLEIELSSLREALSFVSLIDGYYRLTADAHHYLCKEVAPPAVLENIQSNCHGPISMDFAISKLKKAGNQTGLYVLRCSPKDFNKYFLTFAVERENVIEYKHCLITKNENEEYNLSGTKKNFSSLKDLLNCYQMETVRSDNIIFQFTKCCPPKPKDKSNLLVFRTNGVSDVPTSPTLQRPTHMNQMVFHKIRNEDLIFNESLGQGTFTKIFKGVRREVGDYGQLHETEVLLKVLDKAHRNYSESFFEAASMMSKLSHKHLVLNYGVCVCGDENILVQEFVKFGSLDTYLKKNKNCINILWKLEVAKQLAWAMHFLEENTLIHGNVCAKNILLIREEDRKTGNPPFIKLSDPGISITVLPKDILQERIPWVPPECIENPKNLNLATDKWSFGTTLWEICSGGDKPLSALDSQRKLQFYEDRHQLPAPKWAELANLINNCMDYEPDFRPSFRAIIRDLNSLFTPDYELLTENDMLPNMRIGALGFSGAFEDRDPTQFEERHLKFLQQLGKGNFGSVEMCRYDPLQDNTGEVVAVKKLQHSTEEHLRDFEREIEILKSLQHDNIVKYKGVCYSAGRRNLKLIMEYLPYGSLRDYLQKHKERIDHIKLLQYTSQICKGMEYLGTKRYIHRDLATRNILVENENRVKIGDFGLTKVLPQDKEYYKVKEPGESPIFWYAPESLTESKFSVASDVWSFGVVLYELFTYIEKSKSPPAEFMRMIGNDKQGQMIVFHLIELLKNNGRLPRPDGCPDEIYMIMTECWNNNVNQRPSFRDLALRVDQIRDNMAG
Sequence of Protein cereblon/Tyrosine-protein kinase JAK2 (Q96SW2 whole entry): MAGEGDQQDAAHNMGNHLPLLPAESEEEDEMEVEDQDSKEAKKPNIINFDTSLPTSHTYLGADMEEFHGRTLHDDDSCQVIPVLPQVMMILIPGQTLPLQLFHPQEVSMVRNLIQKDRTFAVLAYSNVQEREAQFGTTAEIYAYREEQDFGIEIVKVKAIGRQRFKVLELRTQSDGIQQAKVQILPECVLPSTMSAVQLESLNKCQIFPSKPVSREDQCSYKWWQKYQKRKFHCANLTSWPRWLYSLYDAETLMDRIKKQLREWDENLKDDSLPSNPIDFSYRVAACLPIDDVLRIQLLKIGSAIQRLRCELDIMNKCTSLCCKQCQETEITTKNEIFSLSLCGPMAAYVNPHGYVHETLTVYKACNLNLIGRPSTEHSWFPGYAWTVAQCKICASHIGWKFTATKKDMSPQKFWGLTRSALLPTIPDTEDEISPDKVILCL

Compound	EC50
CCCn1cc(-c2nc(Nc3ccc(C(=O)NCCOCCOCCOCCOCCNc4cccc5c4C(=O)N(C4CCC(=O)NC4=O)C5=O)cc3)nc3[nH]ccc23)cn1 (stereo not drawn)	2300 nM
CCCn1cc(-c2nc(Nc3ccc(C(=O)NCCCNc4cccc5c4C(=O)N(C4CCC(=O)NC4=O)C5=O)cc3)nc3[nH]ccc23)cn1 (stereo not drawn)	0.5 nM
CCCn1cc(-c2nc(Nc3ccc(C(=O)NCCCCCNc4cccc5c4C(=O)N(C4CCC(=O)NC4=O)C5=O)cc3)nc3[nH]ccc23)cn1 (stereo not drawn)	0.9 nM
CCCn1cc(-c2nc(Nc3ccc(C(=O)NCCOCCOCCOCCOCCOCCNc4cccc5c4C(=O)N(C4CCC(=O)NC4=O)C5=O)cc3)nc3[nH]ccc23)cn1 (stereo not drawn)	1100 nM
CCCn1cc(-c2nc(Nc3ccc(C(=O)NCCOCCOCCOCCOCCOCCOCCNc4cccc5c4C(=O)N(C4CCC(=O)NC4=O)C5=O)cc3)nc3[nH]ccc23)cn1 (stereo not drawn)	720 nM
N#CC[C@H](C1CCCC1)n1cc(-c2nc(Nc3ccc(C(=O)NCCCCNc4cccc5c4C(=O)N(C4CCC(=O)NC4=O)C5=O)cc3)nc3[nH]ccc23)cn1 (stereo partly drawn)	3.9 nM
CCCn1cc(-c2nc(Nc3ccc(C(=O)NCCCCCNc4cccc5c4CN(C4CCC(=O)NC4=O)C5=O)cc3)nc3[nH]ccc23)cn1 (stereo not drawn)	0.5 nM
CCCn1cc(-c2nc(Nc3ccc(C(=O)NCCCCNc4cccc5c4C(=O)N(C4CCC(=O)NC4=O)C5=O)cc3)nc3[nH]ccc23)cn1 (stereo not drawn)	0.2 nM
